According to patent US12281102B2, “Inhibitors of APOL1 and methods of using same” (Vertex Pharmaceuticals Incorporated, priority 2020, dated 2025):

Assays:
G1 APOL1 = biological target: T1, G1 APOL1 (Homo sapiens, UniProt O14791, I384M/S342G); assay: Acute APOL1 Thallium Assay with inducible stable clones of HEK 293 cells; type: cell-based; settings: HEK 293 T-Rex inducible stable clone expressing G1 APOL1; read-out: Thallium Assay (IC50)
T1 construct: expressed in transfected cells
T1 sequence (O14791 28-398 S342G/I384M): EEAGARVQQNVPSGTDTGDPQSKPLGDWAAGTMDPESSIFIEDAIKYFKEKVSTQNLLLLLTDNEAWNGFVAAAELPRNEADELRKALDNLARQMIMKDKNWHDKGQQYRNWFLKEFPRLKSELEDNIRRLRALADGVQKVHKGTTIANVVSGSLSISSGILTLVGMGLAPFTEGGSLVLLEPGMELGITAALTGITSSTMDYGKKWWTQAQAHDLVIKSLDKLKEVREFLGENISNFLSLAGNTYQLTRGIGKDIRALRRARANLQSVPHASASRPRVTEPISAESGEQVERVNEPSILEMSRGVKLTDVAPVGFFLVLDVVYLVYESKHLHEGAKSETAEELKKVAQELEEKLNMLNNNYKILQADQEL
Procedure, shortened: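 A tetracycline-inducible HEK293 T-Rex clone (G1 DC3.25) expressing G1 APOL1 was plated at 26,000 cells/well, with tetracycline added at plating to induce expression. Cells were loaded with an AM-ester thallium-sensitive dye and stimulated with Tl+. Pore activity was read as the FLIPR Tetra fluorescence increase from Tl+ influx.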

APOL1 G1 Protein = biological target: T2, APOL1 G1 Protein (Homo sapiens, UniProt O14791, I384M/S342G); assay: Trypanosoma brucei brucei lysis assay using APOL1 recombinant protein (AlamarBlue viability); type: cell-based; settings: Trypanosoma brucei brucei lysis with recombinant APOL1 protein
T2 sequence (O14791 28-398 S342G/I384M): T1 sequence (O14791 28-398 S342G/I384M)

IC50 (G1 APOL1) | Compound | IC50 (APOL1 G1 Protein)
< 250 nM | NCC1CC(c2c(-c3ccc(OC(F)F)cc3)[nH]c3c(F)cc(F)cc23)C1 (centres unmarked) [Compound 182] | < 250 nM
< 250 nM | NCC1CC(c2c(-c3ccc(Cl)cc3)[nH]c3c(F)cc(F)cc23)C1 (mixture of isomers) [Compound 176, (3-(2-(4-chlorophenyl)-5,7-difluoro-1H-indol-3-yl)cyclobutyl)methanamine] | < 250 nM
< 250 nM | N#Cc1ccc(-c2[nH]c3c(F)cc(F)cc3c2C2CC(CN)C2)cc1 (centres unmarked) [Compound 185] | < 250 nM
250 to 1000 nM | CC1(CN)CC(c2c(-c3ccc(F)cc3)[nH]c3c(F)cc(F)cc23)C1 (centres unmarked) [Compound 426, [3-[5,7-difluoro-2-(4-fluorophenyl)-1H-indol-3-yl]-1-methyl-cyclobutyl]methanamine] | < 250 nM
< 250 nM | O=C(CO)NC1CC(c2c(-c3ccc(F)cc3)[nH]c3c(F)cc(F)cc23)C1 (centres unmarked) [Compound 15, N-[3-[5,7-difluoro-2-(4-fluorophenyl)-1H-indol-3-yl]cyclobutyl]-2-hydroxy-acetamide] | 250 to 1000 nM
250 to 1000 nM | NC1CC(c2c(-c3ccc(F)cc3)[nH]c3c(F)cccc23)C1 (centres unmarked) [Compound 6, 3-[7-fluoro-2-(4-fluorophenyl)-1H-indol-3-yl]cyclobutanamine] | < 250 nM
< 250 nM | COc1ccc(-c2[nH]c3c(F)cc(F)cc3c2C2CC(CN)C2)cc1 (centres unmarked) [Compound 183] | < 250 nM
